Measured values from US9616006B2, “Methods and compositions for treating dermatological diseases and conditions” (priority 2007, dated 2017).

Experiments:
collagen 1 mRNA = experiment: Collagen mRNA in fibroblasts by RT-PCR; type: cell-based, human; conditions: fibroblast cell cultures treated 72 hours
Excerpt: (§1) The presently claimed and disclosed inventive concept(s) further contemplates use of various DHE, IE and EV compositions and salts, esters, ethers, and derivatives thereof to mitigate the effects of aging on the skin. For all aging studies, normal human fibroblast cell cultures were used. These cells normally produce collagen, elastin and hyaluronic acid. As the skin ages, the fibroblasts in the dermis lose their ability to produce these three key components of skin, and the skin consequently loses elasticity, thickness and smooth texture. In addition, as fibroblasts age, they increase the expression of certain enzymes that destroy collagen and elastin. There are about 13 of these enzymes, collectively referred to as MMPs (matrix metalloproteinases). One of the principal MMPs, MMP-1, is responsible for collagen degradation. […] Fibroblast cell cultures were treated with either IE, DHE or EV for 72 hours at which time the amount of collagen mRNA present in the cells was determined.

IL-8 [1] = experiment: TNF-α-induced IL-8 production in monocytes; type: cell-based; conditions: Monocyte, read-out: Percent Inhibition of IL-8
Excerpt: (§2) DHE and IE both have inhibitory effects on the production of the inflammatory mediators in monocytes.

IL-8 [2] = experiment: LPS-induced IL-8 production in monocytes; type: cell-based; conditions: Monocyte; Monocytes (LPS); 100 uM; read-out: Percent Inhibition of IL-8
Excerpt: as §2

TNF-α [3] = experiment: TPA-induced TNF-α production in keratinocytes (ELISA); type: cell-based, human; conditions: Homo sapiens, Keratinocyte; Keratinocytes (TPA); 100 uM; read-out: Percent Inhibition of TNF-α
Protocol: (§3) In one study, various concentrations of DHE were added to culture medium and these media were placed on human fibroblast cell cultures (results shown in FIG. 1). Cells were either not induced or induced with UVB radiation to stimulate cytokine/PGE-2 production. At 24 hours after treatment, the cell culture medium was removed and assayed by ELISA methods for the expression of PGE-2, various cytokines and chemokines.
(§4) When similar experiments were carried out with human keratinocytes, DHE was again found to markedly suppress the UVR induction of PGE-2, with a concentration of 50 uM inhibiting the production of PGE-2 by over 60% (results shown in FIG. 2). […] Further, since PGE-2 is known to be a principal factor in the development of actinic keratosis and skin cancer, DHE can also be used in treating these conditions.
Inflammatory mediators produced in the skin contribute to the development and propagation of such diseases as rosacea, psoriasis and atopic dermatitis. While many inflammatory mediators are involved in these diseases, TNF-α is known to be a major cytokine involved in psoriasis. For atopic dermatitis, TNF-α, IL-8, and MCP-1 are important mediators of inflammation in these diseases. DHE is effective in suppressing the TPA-induced (TPA is tetradecanolyl phorbol ester) production of TNF-α by approximately 50% at a 100 micromolar concentration (results shown in FIG. 3).
(§5) DHE and IE both have inhibitory effects on production of the inflammatory mediators in keratinocytes.

IL-8 [4] = experiment: TPA-induced IL-8 production in keratinocytes (ELISA); type: cell-based, human; conditions: Homo sapiens, Keratinocyte, read-out: Percent Inhibition of IL-8
IL-8 [5] = experiment: IL-1-induced IL-8 production in fibroblasts (ELISA); type: cell-based, human; conditions: Homo sapiens, Fibroblast, Fibroblasts (IL-1), read-out: Percent Inhibition of IL-8
TNF-α [6] = experiment: LPS-induced TNF-α production in monocytes; type: cell-based; conditions: Monocyte; Monocytes (LPS); 100 uM; read-out: Percent Inhibition of TNF-α
Excerpt: as §2

IL-8 [7] = experiment: UV-induced IL-8 production in fibroblasts (ELISA); type: cell-based, human; conditions: Homo sapiens, Fibroblast, read-out: Percent Inhibition of IL-8
Protocol: as §3
DHE and IE both have inhibitory effects on the production of the inflammatory mediators in fibroblasts.

TIMP-1 = TIMP-1 mRNA in fibroblasts by PCR; type: cell-based, human
Excerpt: The presently claimed and disclosed inventive concept(s) further contemplates use of various DHE, IE and EV compositions and salts, esters, ethers, and derivatives thereof to mitigate the effects of aging on the skin. For all aging studies, normal human fibroblast cell cultures were used. These cells normally produce collagen, elastin and hyaluronic acid. As the skin ages, the fibroblasts in the dermis lose their ability to produce these three key components of skin, and the skin consequently loses elasticity, thickness and smooth texture. In addition, as fibroblasts age, they increase the expression of certain enzymes that destroy collagen and elastin. There are about 13 of these enzymes, collectively referred to as MMPs (matrix metalloproteinases). One of the principal MMPs, MMP-1, is responsible for collagen degradation. For experiments herein to determine the effects of DHE, IE and EV on collagen, elastin and hyaluronic acid, fibroblasts were treated with the compounds for 72 hours, mRNA was then isolated, and analyzed for abundance by RT-PCR (Reverse transcriptase-Polymerase Chain Reaction).
Fibroblasts in the skin not only produce enzymes (MMPs) that destroy the skin matrix but they also produce proteins (Tissue Inhibitors of Metalloproteinases, i.e., TIMPS) that inhibit these enzymes. There are several TIMPs, but one that is most important for inhibiting MMPs is TIMP-1. […] Shown in FIG. 11 is PCR data showing the up-regulation of TIMP-1 mRNA by these compounds.

TNF-α [8] = experiment: UV-induced TNF-α production in keratinocytes (ELISA); type: cell-based, human; conditions: Homo sapiens, Keratinocyte, read-out: Percent Inhibition of TNF-α
Protocol: as §3, §4, §5

MCP-1 = experiment: TNF-α-induced MCP-1 production in monocytes; type: cell-based; conditions: Monocyte, read-out: Percent Inhibition of MCP-1
Excerpt: as §2

elastin mRNA = experiment: Elastin mRNA in human dermal fibroblasts by RT-PCR; type: cell-based; conditions: 72 hours
Excerpt: as §1, with “In addition, as fibroblasts age, they increase the expression of certain enzymes that destroy collagen and elastin.” left out, “The image is from an electrophoresis gel of DNA amplified by PCR from fibroblast mRNA. This gel was analyzed and” for “Fibroblast cell cultures were treated with either IE, DHE or EV for 72 hours at which time”, “density” for “amount”, “each band quantified by image analysis software.” for “collagen mRNA present in the cells was determined.”

[9] = tested on: human melanocyte cultures; experiment: Pigment in human melanocyte cultures; type: cell-based; conditions: treated for 9 days
IL-6 = experiment: TPA-induced IL-6 production in keratinocytes (ELISA); type: cell-based, human; conditions: Homo sapiens, Keratinocyte, read-out: Percent Inhibition of IL-6
IL-8 [10] = experiment: UV-induced IL-8 production in keratinocytes (ELISA); type: cell-based, human; conditions: Homo sapiens, Keratinocyte, read-out: Percent Inhibition of IL-8
Protocol: as §3, §4, §5

CC=Cc1ccc(O)c(OC)c1 [IE, isoeugenol]
collagen production (collagen mRNA) (collagen 1 mRNA): stimulation | inhibition at 100 µM (IL-8 [1]): 78% | inhibition at 100 µM (IL-8 [2]): 75% | inhibition at 100 µM (TNF-α [3]): 71% | inhibition at 100 µM (IL-8 [4]): 75% | inhibition at 100 µM (IL-8 [5]): 98% | inhibition at 100 µM (TNF-α [6]): 80% | inhibition at 100 µM (IL-8 [7]): 2% | production of TIMP-1 (TIMP-1 mRNA) (TIMP-1): significantly stimulate | inhibition at 100 µM (TNF-α [8]): 60% | inhibition at 100 µM (MCP-1): 82% | elastin levels (elastin mRNA) (elastin mRNA): increase | pigment in human melanocyte cultures [9]: loss of pigment | inhibition at 100 µM (IL-6): 94% | inhibition at 100 µM (IL-8 [10]): 76%
